Data as given in ChEMBL document CHEMBL2440082, “New non-symmetrical choline kinase inhibitors” (Bioorg Med Chem, 2013).
Calls of active or inactive are those of the source. No cut-off for these calls is given here.

What was measured:
Homo sapiens [1] = organism: Homo sapiens; experiment: Inhibition of human ChoK activity assessed as inhibition of incorporation of [14C] from methyl[14C]choline into phosphocholine at 50 uM after 20 mins by scintillation counting
HepG2 [2] = experiment: Antiproliferative activity against human HepG2 cells at 50 uM after 24 hrs by crystal violet-staining assay; type: functional
HepG2 [3] = experiment: Antiproliferative activity against human HepG2 cells at 5 uM after 24 hrs by crystal violet-staining assay; type: functional
Homo sapiens [4] = organism: Homo sapiens; experiment: Inhibition of human ChoK activity assessed as inhibition of incorporation of [14C] from methyl[14C]choline into phosphocholine at 10 uM after 20 mins by scintillation counting
HepG2 [5] = experiment: Antiproliferative activity against human HepG2 cells at 10 uM after 24 hrs by crystal violet-staining assay; type: functional
HepG2 [6] = experiment: Antiproliferative activity against human HepG2 cells at 1 uM after 24 hrs by crystal violet-staining assay; type: functional
HepG2 [7] = experiment: Cytotoxicity against human HepG2 cells at 10 uM after 24 hrs by crystal violet-staining assay; type: cell-based; conditions: hepg2, 24 h
HepG2 [8] = experiment: Cytotoxicity against human HepG2 cells at 50 uM after 24 hrs by crystal violet-staining assay; type: cell-based; conditions: hepg2, 24 h
[9] = Inhibition of human ChoK activity assessed as inhibition of incorporation of [14C] from methyl[14C]choline into phosphocholine after 20 mins by scintillation counting

SMILES	inhibition (Homo sapiens [1])	inhibition (Homo sapiens [4])	IC50 [9] [µM]	Activity (HepG2 [2])	Activity (HepG2 [3])	Activity (HepG2 [5])	Activity (HepG2 [6])	Activity (HepG2 [7])	Activity (HepG2 [8])
CN(C)c1cc[n+](Cc2ccc(CCc3ccc(COc4cccc(N)c4)cc3)cc2)cc1.[Br-]	21.9%	inactive	–	59.54%	6.98%	30.53%	7.42%	–	–
CN(C)c1cc[n+](Cc2ccc(CCCCc3ccc(COc4cccc(N)c4)cc3)cc2)cc1.[Br-]	inactive	inactive	–	46.67%	18.32%	22.68%	10.14%	–	–
CN(C)c1cc[n+](Cc2ccc(-c3ccc(COc4cccc(N)c4)cc3)cc2)cc1.[Br-]	79.8%	54.4%	6.37	–	16.23%	24.4%	8.5%	–	Toxic
CN(C)c1cc[n+](Cc2ccc(CCCCc3ccc(Cn4cnc5c(N)ncnc54)cc3)cc2)cc1.[Br-]	89.7%	66.7%	–	45.5%	–	10.2%	–	–	–
CN(C)c1cc[n+](Cc2ccc(CNc3cccc(O)c3)cc2)cc1.[Br-]	52.4%	27.5%	–	54.51%	13.01%	24.38%	7.74%	–	–
CN(C)c1cc[n+](Cc2ccc(-c3ccc(Cn4cnc(N)c5ncnc4-5)cc3)cc2)cc1.[Br-]	71.4%	62.3%	–	7%	–	10%	–	–	–
Nc1cccc(OCc2ccc(-c3ccc(C[n+]4ccc(N5CCCC5)cc4)cc3)cc2)c1.[Br-]	20.8%	inactive	–	–	57.24%	–	40.52%	Toxic	Toxic
CN(C)c1cc[n+](Cc2ccc(-c3ccc(CNc4cccc(O)c4)cc3)cc2)cc1.[Br-]	66.2%	54.2%	7.89	24.4%	inactive	9.86%	inactive	–	–
Nc1cccc(OCc2ccc(C[n+]3ccc(N4CCCC4)cc3)cc2)c1	12.9%	3.8%	–	inactive	inactive	inactive	inactive	–	–
CN(C)c1cc[n+](Cc2ccc(COc3cccc(N)c3)cc2)cc1.[Br-]	37.7%	14.8%	–	22.48%	inactive	inactive	inactive	–	–

More lines, main results first:

inhibition (Homo sapiens [1])	inhibition (Homo sapiens [4])	IC50 [9] [µM]	SMILES	Activity (HepG2 [2])	Activity (HepG2 [3])	Activity (HepG2 [5])	Activity (HepG2 [6])	Activity (HepG2 [7])	Activity (HepG2 [8])
39.5%	inactive	–	CN(C)c1cc[n+](Cc2ccc(CCc3ccc(CNc4cccc(O)c4)cc3)cc2)cc1.[Br-]	73.4%	18.43%	34.1%	5.56%	–	–
21.6%	inactive	–	Nc1cccc(OCc2ccc(CCCCc3ccc(C[n+]4ccc(N5CCCC5)cc4)cc3)cc2)c1.[Br-]	–	83.21%	–	57.69%	Toxic	Toxic
12.9%	3.8%	–	CN(C)c1cc[n+](Cc2ccc(CCCCc3ccc(CNc4cccc(O)c4)cc3)cc2)cc1.[Br-]	71.1%	13.09%	30.86%	4.58%	–	–
inactive	inactive	–	Nc1cccc(OCc2ccc(CCc3ccc(C[n+]4ccc(N5CCCC5)cc4)cc3)cc2)c1.[Br-]	–	76.04%	–	55.37%	Toxic	Toxic
18%	inactive	–	Oc1cccc(NCc2ccc(CCCCc3ccc(C[n+]4ccc(N5CCCC5)cc4)cc3)cc2)c1.[Br-]	–	48.96%	–	inactive	Toxic	Toxic
13.6%	inactive	–	Oc1cccc(NCc2ccc(CCc3ccc(C[n+]4ccc(N5CCCC5)cc4)cc3)cc2)c1.[Br-]	–	67.39%	–	11.19%	Toxic	Toxic
41.3%	inactive	–	Oc1cccc(NCc2ccc(C[n+]3ccc(N4CCCC4)cc3)cc2)c1.[Br-]	8.53%	13.43%	9.54%	2.91%	–	–
28.2%	inactive	–	Oc1cccc(NCc2ccc(-c3ccc(C[n+]4ccc(N5CCCC5)cc4)cc3)cc2)c1.[Br-]	–	52.99%	–	48.52%	Toxic	Toxic
